Here are results for 13 compounds from patent US20260308145A1, “CDK2 INHIBITORS AND METHODS OF USING SAME” (Shenzhen lonova Life Science Co., Ltd., priority 2023, published 2026).

Each structure is given as a SMILES string.

Broadly, the IC50 is the concentration needed to halve the response being measured. A higher IC50 goes with lower potency.

Holding throughout (assay type): biochemical
For one test, the target named is T1, CDK4/cyclinD3 (Homo sapiens, UniProt P11802).
T1 construct: purchased Carna Biosciences 04-105
T1 sequence (P11802 whole entry): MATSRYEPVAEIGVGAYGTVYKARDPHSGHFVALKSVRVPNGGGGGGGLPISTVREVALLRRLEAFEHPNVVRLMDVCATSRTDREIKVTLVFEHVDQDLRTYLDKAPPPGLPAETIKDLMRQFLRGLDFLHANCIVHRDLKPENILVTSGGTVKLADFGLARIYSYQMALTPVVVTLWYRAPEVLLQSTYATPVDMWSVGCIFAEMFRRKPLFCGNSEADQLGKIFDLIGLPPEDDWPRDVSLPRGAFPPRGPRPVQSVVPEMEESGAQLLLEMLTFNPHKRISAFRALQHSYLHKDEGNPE
T1 sequence (P30281 whole entry partner): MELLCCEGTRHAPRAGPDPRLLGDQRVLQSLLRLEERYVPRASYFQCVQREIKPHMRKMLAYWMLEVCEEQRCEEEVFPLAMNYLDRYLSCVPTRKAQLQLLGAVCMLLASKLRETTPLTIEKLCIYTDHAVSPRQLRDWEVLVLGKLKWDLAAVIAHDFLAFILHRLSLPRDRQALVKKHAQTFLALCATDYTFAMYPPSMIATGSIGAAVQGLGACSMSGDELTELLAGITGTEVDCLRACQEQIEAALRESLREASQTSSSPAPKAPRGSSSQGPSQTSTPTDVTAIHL
The test can be described thus: Cyclin-dependent kinase activity assay (continuous ATP coupling assay), CDK4/cyclinD3. To be noted: CDK4/cyclinD3 60 nM, ATP 500 μM, Rb copeptide 500 μM, 15 min preincubation, pH 7.5, 1% DMSO. Here is the method: (§1) Cyclin-dependent kinase activity assay was measured by continuous ATP coupling assay in which ADP generated by kinase catalyzed phosphorylation was converted back to ATP by consuming phosphoenolpyruvate (PEP) and NADH catalyzed by pyruvate kinase/lactate dehydrogenase (PK/LDH). The assay compositions (see, Table 1) consist of one of the kinases, including CDK1/cyclinB1, CDK2/cyclinE1, CDK4/cyclinD3, and CDK6/cyclinD3 at the designated concentration, ATP at the corresponding Km of the kinase, copeptide and the ATP coupling system of PEP, NADH and PK/LDH. The assay was conducted in a reaction buffer of 20 mM Tris (pH 7.5) with 50 mM NaCl, 0.5 mM DTT and 0.04% BSA, and results were monitored continuously by fluorescence decrease of NADH with excitation at 340 nm and emission at 460 nm. Linear regression of the resulting reaction time traces gave reaction velocities.
(§2) For inhibition assay, compounds were first serial diluted in a 1:3 ratio from 10 μM to 0.05 nM using 10× reaction buffer. One of the CDK kinase was then introduced to compounds solution and incubated for 15 min. Finally, the compositions of ATP coupling system were introduced to the resulting solution to initiate the reaction. The final reaction mixture was in 1× reaction assay buffer with 1% DMSO. The half-maximal inhibition concentrations (IC50) for compounds were determined by fitting the plots of reaction velocity against compound concentration with 4-variable IC50 equation. The inhibition constants (Ki) were determined by fitting the same plots with quadratic/Morrison equation. Data were analyzed using commercially available software Graphpad Prism.
(§3) Exemplary results are presented as calculated IC50 values. • A: IC50≤10 nM • B: IC50>10 nM and IC50<100 nM • C: IC50≥100 nM

The next test has as its target T2, CDK1/cyclinB1 (Homo sapiens, UniProt P06493).
T2 construct: purchased Carna Biosciences 04-102
The test can be described thus: Cyclin-dependent kinase activity assay (continuous ATP coupling assay), CDK1/cyclinB1. The conditions noted are these: CDK1/cyclinB1 10 nM, ATP 200 μM, Histone1 copeptide 100 μM, 15 min preincubation, pH 7.5, 1% DMSO. The method, then: as §1, §2, §3

The next test concerns the target T3, CDK2/cyclinE1 (Homo sapiens, UniProt P24941).
T3 construct: purchased Carna Biosciences 04-165
The test can be described thus: Cyclin-dependent kinase activity assay (continuous ATP coupling assay), CDK2/cyclinE1. The conditions noted are these: CDK2/cyclinE1 5 nM, ATP 300 μM, Rb copeptide 100 μM, 15 min preincubation, pH 7.5, 1% DMSO. The method, then:
as §1, §2, §3

In a further test the target is T4, CDK6/cyclinD3 (Homo sapiens, UniProt Q00534).
T4 construct: purchased Carna Biosciences 04-107
T4 sequence (Q00534 whole entry): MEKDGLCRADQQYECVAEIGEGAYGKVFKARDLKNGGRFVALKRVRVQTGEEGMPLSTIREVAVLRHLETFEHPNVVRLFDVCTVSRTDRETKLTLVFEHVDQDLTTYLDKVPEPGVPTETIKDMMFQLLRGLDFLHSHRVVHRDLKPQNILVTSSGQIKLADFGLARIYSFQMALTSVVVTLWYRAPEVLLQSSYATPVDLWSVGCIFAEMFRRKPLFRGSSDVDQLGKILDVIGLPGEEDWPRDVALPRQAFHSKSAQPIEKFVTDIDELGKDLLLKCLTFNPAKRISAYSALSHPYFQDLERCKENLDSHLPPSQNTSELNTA
T4 sequence (P30281 whole entry partner): as the sequence (P30281 whole entry partner) above
The test can be described thus: Cyclin-dependent kinase activity assay (continuous ATP coupling assay), CDK6/cyclinD3. The conditions noted are these: CDK6/cyclinD3 25 nM, ATP 500 μM, Rb copeptide 500 μM, 15 min preincubation, pH 7.5, 1% DMSO. Here is the method: as §1, §2, §3

T2 sequence (P06493 whole entry): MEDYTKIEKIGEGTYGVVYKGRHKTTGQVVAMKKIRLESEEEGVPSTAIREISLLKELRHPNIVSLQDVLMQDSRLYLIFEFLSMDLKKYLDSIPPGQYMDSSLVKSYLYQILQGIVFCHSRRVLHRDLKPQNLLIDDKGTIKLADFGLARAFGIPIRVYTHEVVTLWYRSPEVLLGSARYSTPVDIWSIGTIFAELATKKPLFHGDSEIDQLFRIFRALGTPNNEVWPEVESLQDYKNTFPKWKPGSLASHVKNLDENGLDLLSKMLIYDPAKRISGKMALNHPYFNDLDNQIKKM
T2 sequence (P14635 whole entry partner): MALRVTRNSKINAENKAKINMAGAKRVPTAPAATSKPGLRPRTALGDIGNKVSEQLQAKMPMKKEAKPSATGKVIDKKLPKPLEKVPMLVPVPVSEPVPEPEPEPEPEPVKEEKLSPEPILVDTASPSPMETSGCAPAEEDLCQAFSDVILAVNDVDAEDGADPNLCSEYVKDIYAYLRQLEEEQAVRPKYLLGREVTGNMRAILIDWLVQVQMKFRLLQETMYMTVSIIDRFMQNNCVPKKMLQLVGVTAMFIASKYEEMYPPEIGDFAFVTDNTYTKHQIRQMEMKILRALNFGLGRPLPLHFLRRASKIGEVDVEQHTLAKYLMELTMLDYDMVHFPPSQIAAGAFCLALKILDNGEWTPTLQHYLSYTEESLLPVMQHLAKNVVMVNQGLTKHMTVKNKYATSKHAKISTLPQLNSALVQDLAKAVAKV

Regarding `CNS(=O)(=O)c1ccc(Nc2ncc(C(F)(F)F)c(-n3cc(C4CCNCC4)cn3)n2)cc1` [Example 13], the IC50 at CDK4/cyclinD3 was 10 to 100 nM; on CDK1/cyclinB1 it was 10 to 100 nM; at CDK2/cyclinE1 it was ≤ 10 nM; against CDK6/cyclinD3 it was 10 to 100 nM.
As to `CC(O)Cc1cnn(-c2nc(NC3CCN(S(C)(=O)=O)CC3)ncc2C(F)(F)F)c1` (single isomer, unassigned) [Example 107], the IC50 is 10 to 100 nM on CDK4/cyclinD3, 10 to 100 nM on CDK1/cyclinB1, ≤ 10 nM at CDK2/cyclinE1 and 10 to 100 nM on CDK6/cyclinD3.
With `CN1CCC(NS(=O)(=O)c2ccc(Nc3ncc(C(F)(F)F)c(-n4cccn4)n3)cc2)CC1` [Example 35], the IC50 is 10 to 100 nM at CDK4/cyclinD3, ≥ 100 nM against CDK1/cyclinB1, ≤ 10 nM at CDK2/cyclinE1 and ≥ 100 nM against CDK6/cyclinD3.
As to `CNS(=O)(=O)c1ccc(Nc2ncc(C(F)(F)F)c(-n3cc(C4CC4(F)F)cn3)n2)cc1` (single isomer, unassigned) [Example 53, 4-[[4-[4-(2,2-difluorocyclopropyl)pyrazol-1-yl]-5-(trifluoromethyl)pyrimidin-2-yl]amino]-N-methyl-benzenesulfonamide], the IC50 on CDK4/cyclinD3 is ≥ 100 nM; at CDK1/cyclinB1, ≥ 100 nM; at CDK2/cyclinE1, 10 to 100 nM; against CDK6/cyclinD3, ≥ 100 nM.
On to `CNS(=O)(=O)c1ccc(Nc2ncc(C(F)(F)F)c(-n3cc([C@@H]4CCC[C@@H]4O)cn3)n2)cc1` (single isomer, unassigned) [Example 76], for which the IC50 at CDK4/cyclinD3 is 10 to 100 nM; against CDK1/cyclinB1, ≥ 100 nM; at CDK2/cyclinE1, 10 to 100 nM; against CDK6/cyclinD3 it was ≥ 100 nM.
Regarding `CN1CCN(S(=O)(=O)c2ccc(Nc3ncc(C(F)(F)F)c(-n4cccn4)n3)cc2)CC1` [Example 38], the IC50 against CDK4/cyclinD3 was ≥ 100 nM; on CDK1/cyclinB1 it was ≥ 100 nM; against CDK2/cyclinE1 it was 10 to 100 nM; at CDK6/cyclinD3, ≥ 100 nM.
On to `CNS(=O)(=O)c1ccc(Nc2ncc(C(F)(F)F)c(-n3cc(C4(C#N)CC4)cn3)n2)cc1` [Example 51, 4-[[4-[4-(1-cyanocyclopropyl)pyrazol-1-yl]-5-(trifluoromethyl)pyrimidin-2-yl]amino]-N-methyl-benzene sulfonamide], for which the IC50 against CDK4/cyclinD3 was ≥ 100 nM; at CDK1/cyclinB1 it was ≥ 100 nM; on CDK2/cyclinE1, 10 to 100 nM; against CDK6/cyclinD3, ≥ 100 nM.
Turning to `CN1CCC(N2CCN(c3ccc(Nc4ncc(C(F)(F)F)c(-n5cccn5)n4)cc3)CC2)CC1` [Example 33], the IC50 on CDK4/cyclinD3, against CDK1/cyclinB1, on CDK2/cyclinE1 and on CDK6/cyclinD3 was ≥ 100 nM throughout.
In the case of `CC(O)Cc1cnn(-c2nc(NC3CCN(S(C)(=O)=O)CC3)ncc2C(F)(F)F)c1` (single isomer, unassigned) [Example 108], the IC50 at CDK4/cyclinD3 was 10 to 100 nM; at CDK1/cyclinB1 it was ≥ 100 nM; on CDK2/cyclinE1, 10 to 100 nM; against CDK6/cyclinD3 it was 10 to 100 nM.
`O=S(=O)(NCCO)c1ccc(Nc2nccc(-n3cccn3)n2)cc1` [Example 118]: the IC50 on CDK4/cyclinD3, at CDK1/cyclinB1, at CDK2/cyclinE1 and against CDK6/cyclinD3 was ≥ 100 nM in each case.
As to `CNS(=O)(=O)c1ccc(Nc2ncc(C(F)(F)F)c(-n3cc(C4CNC4)cn3)n2)cc1` [Example 15], the IC50 was 10 to 100 nM against CDK4/cyclinD3, 10 to 100 nM against CDK1/cyclinB1, ≤ 10 nM against CDK2/cyclinE1 and 10 to 100 nM against CDK6/cyclinD3.
For `CC(C)(CO)NS(=O)(=O)c1ccc(Nc2ncc(C(F)(F)F)c(-n3cccn3)n2)cc1` [Example 134], the IC50 against CDK4/cyclinD3 is ≥ 100 nM; on CDK1/cyclinB1 it was ≥ 100 nM; against CDK2/cyclinE1, ≤ 10 nM; against CDK6/cyclinD3, ≥ 100 nM.
As for `O=C(O)CNS(=O)(=O)c1ccc(Nc2ncc(C(F)(F)F)c(-n3cccn3)n2)cc1` [Example 138, ((4-((4-(1H-pyrazol-1-yl)-5-(trifluoromethyl)pyrimidin-2-yl)amino)phenyl)sulfonyl)glycine], the IC50 against CDK4/cyclinD3 was ≥ 100 nM; against CDK1/cyclinB1, ≥ 100 nM; against CDK2/cyclinE1, ≤ 10 nM; at CDK6/cyclinD3 it was ≥ 100 nM.
